The source of these data is PMC12406204 (Journal of Medicinal Chemistry, 2025).

For one series, the target named is P-glycoprotein (P-gp) (Homo sapiens, UniProt P08183). Nature of the series: P-gp interaction, Calcein-AM experiment. The class given is cell-based. The following applies: for P-gp interaction % at 100 μM: inhibition at 100 μM; for EC50: Calcein-AM. The procedure: To validate the early predictions from the CNS-MPO and BOILED-egg models (Figure ), we experimentally assessed the BBB permeability and P-gp interaction of the selected CB2R agonists. For these studies, two pairs of amide enantiomers (18p and 18o, 18e, and 18f) were selected, and the evaluations were conducted using established protocols previously published by our group. Key parameters measured included the permeability coefficients (P appBA and P appAB), the bidirectional permeability ratio (BA/AB), and the degree of interaction with P-gP, as detailed in Table .
This experiment was carried out as described by Contino et al. with minor modifications. Each cell line (30,000 cells per well) was seeded into black CulturePlate 96/wells plate with 100 μL medium and allowed to become confluent overnight. 100 μL of test compounds were solubilized in culture medium and added to monolayers, with final concentrations ranging from 0.1 to 100 μM. 96/Wells plate was incubated at 37 °C for 30 min. Calcein-AM was added in 100 μL of Phosphate Buffered Saline (PBS) to yield a final concentration of 2.5 μM and plate was incubated for 30 min. Each well was washed 3 times with ice cold PBS. Saline buffer was added to each well and the plate was read with Victor3 (PerkinElmer) at excitation and emission wavelengths of 485 and 535 nm, respectively. In these experimental conditions Calcein cell accumulation in the absence and in the presence of tested compounds was evaluated and fluorescence basal level was estimated with untreated cells. In treated wells the increase of fluorescence with respect to basal level was measured. EC50 values were determined by fitting the fluorescence increase percentage versus log[dose].

A short description of series [1]: Cytotoxicity on THP1 monocytes and macrophages. Type of series: cell-based. As to conditions: human, 100 nM, basal and LPS-stimulated conditions, read-out: cell viability (cytotoxicity). The source says: These findings collectively highlight the anti-inflammatory properties of the selected CB2R agonists. […] The cytokine modulation profiles observed (Figure ) support the hypothesis that these ligands promote a shift toward an anti-inflammatory immune response, reducing the detrimental effects of chronic inflammation. This makes them promising candidates for the development of new therapies addressing severe inflammatory conditions, such as systemic infections, sepsis, neuroinflammation, and certain types of cancer or scenarios where conventional anti-inflammatory treatments are insufficient. Moreover, the selective targeting of CB2R without activating CB1R ensures a favorable safety profile, minimizing the risk of psychoactive side effects, and positioning these ligands as promising candidates for neurodegenerative and oncological therapies. To ensure the safety and viability of our tested compounds, we evaluated their cytotoxic effects on monocytes and macrophages under the same conditions as those used for assessing anti-inflammatory activity (Figure ). Each compound was tested at a concentration of 100 nM.
Supplementary Figure S5. Cytotoxicity assessment of lead compounds (16i, 16j, 18e, 18f, 18o, and 18p) on THP1 monocytes and macrophages (n = 3). Cells were treated with each compound at 100 nM under both basal and LPS - stimulated conditions. The viability was compared to controls, including HU308 and SR144528. […]
cytotoxic effects, with cell viability remaining close to 100% across all conditions. Error bars represent standard deviation.
(1 picture or pasted object on this page, not shown here)

The next series relates to mouse primary neurons. The series can be described thus: Viability of primary neuronal cultures, basal conditions (trypan blue). Type of series: cell-based. As to conditions: 100 nM, 24 h. On the procedure: A mouse primary cell experiment was performed to examine the neuroprotective effects of CB2R agonists selected for in-depth study (16i, 16j, 18e, 18f, 18o, and 18p). First, to exclude any intrinsic toxicity of the selected candidates, their potential effects on primary cell cultures were assessed. […] This finding is particularly noteworthy, and not self-evident, given the significant neurotoxicity observed during our earlier study with structurally related, classical abused [CB1R/CB2R promiscuous] synthetic cannabinoids (SCRAs). For comparative purposes, Figure A also depicts cell viability data obtained for some abused SCRAs (Figure A, gray bars) under identical conditions.
To prepare primary neurons, brains from fetuses of pregnant CD1 mice were removed (gestational age: 19 days). Neurons were isolated as described in Hradsky et al. Briefly, after removal of the meninges, samples were dissected and digested with 0.25% trypsin (20 min at 37 °C). The effect of trypsin was stopped by adding an equal volume of culture medium (supplemented DMEM). A single-cell suspension was obtained by repeated pipetting followed by passage through a 100 μm-pore mesh. Pelleted (7 min, 200g) cells were resuspended in 2 mL of supplemented DMEM and seeded at a density of 3.5 × 10^5 cells/mL in 6-well plates. After 24 h, the medium was replaced by neurobasal medium supplemented with 2 mM L-glutamine, 100 U/mL penicillin/streptomycin and 2% (v/v) B27 medium (GIBCO, Waltham, MA, USA). Primary neurons were assayed after 14 days in culture. Using NeuN as a marker, the percentage of neurons in the culture was >90%.
Primary cultures of striatal neurons were treated for 24 h with selected SCRAs (100 nM). Afterward, cells were scrapped from the plate and resuspended in neurobasal medium supplemented with 2 mM L-glutamine, 100 U/mL penicillin/streptomycin and 2% (v/v) B27 (GIBCO). Trypan blue staining was performed mixing 1 part of 0.4% trypan blue and 1 part of cell suspension in a plastic tube. After ∼3 min of incubation at room temperature, 10 μL of the mixture were sampled in a Neubauer chamber and counted with a Countess II FL (Life Technologies, California, CA, USA). The unstained (viable) and stained (nonviable) cells were counted separately, and the percentage of viability was calculated as total number of viable cells/total number of cells × 100.

The next series addresses CB1R (Homo sapiens, UniProt P21554). Nature of the series: CB1R radioligand binding competition ([3H]CP55,940). On the set-up: host or cells: CHO-CB1 C3 cell line. As to conditions: for CB1R % at 1 μM: percentage displacement of specific [3H]CP 55,940 binding at 1 μM, n = 2.
In another series the target is CB2R (Homo sapiens, UniProt P34972). Nature of the series: CB2R MAPK phosphorylation. As to conditions: for Emax: normalized to CP 55,940. Set-up: expressed in transfected cells; host or cells: HEK-293T, transient transfection (PEI). Type of series: cell-based. An excerpt:
Initially we tested their ability to modify CB2R-mediated cAMP accumulation, providing insights into their functional behavior as either agonists or antagonists (Table ). Moreover, the signaling profiles of selected ligands were investigated through their impact on β-arrestin recruitment and Mitogen-Activated Protein Kinase (MAPK) phosphorylation pathway, enabling a more comprehensive evaluation of their intracellular signaling profiles (Table ).
JWH-133, a well-known nonbiased (balanced) agonist, was employed as the reference for comparing the signaling profiles of the tested compounds. An operational model analysis was applied to quantify the functional bias of each CB2R-selective agonist. This involved calculating the bias factor by comparing the signaling pathways: β-arrestin versus cAMP, MAPK versus cAMP, and β-arrestin versus MAPK.

Chain of P-glycoprotein (P-gp) (P08183 whole entry): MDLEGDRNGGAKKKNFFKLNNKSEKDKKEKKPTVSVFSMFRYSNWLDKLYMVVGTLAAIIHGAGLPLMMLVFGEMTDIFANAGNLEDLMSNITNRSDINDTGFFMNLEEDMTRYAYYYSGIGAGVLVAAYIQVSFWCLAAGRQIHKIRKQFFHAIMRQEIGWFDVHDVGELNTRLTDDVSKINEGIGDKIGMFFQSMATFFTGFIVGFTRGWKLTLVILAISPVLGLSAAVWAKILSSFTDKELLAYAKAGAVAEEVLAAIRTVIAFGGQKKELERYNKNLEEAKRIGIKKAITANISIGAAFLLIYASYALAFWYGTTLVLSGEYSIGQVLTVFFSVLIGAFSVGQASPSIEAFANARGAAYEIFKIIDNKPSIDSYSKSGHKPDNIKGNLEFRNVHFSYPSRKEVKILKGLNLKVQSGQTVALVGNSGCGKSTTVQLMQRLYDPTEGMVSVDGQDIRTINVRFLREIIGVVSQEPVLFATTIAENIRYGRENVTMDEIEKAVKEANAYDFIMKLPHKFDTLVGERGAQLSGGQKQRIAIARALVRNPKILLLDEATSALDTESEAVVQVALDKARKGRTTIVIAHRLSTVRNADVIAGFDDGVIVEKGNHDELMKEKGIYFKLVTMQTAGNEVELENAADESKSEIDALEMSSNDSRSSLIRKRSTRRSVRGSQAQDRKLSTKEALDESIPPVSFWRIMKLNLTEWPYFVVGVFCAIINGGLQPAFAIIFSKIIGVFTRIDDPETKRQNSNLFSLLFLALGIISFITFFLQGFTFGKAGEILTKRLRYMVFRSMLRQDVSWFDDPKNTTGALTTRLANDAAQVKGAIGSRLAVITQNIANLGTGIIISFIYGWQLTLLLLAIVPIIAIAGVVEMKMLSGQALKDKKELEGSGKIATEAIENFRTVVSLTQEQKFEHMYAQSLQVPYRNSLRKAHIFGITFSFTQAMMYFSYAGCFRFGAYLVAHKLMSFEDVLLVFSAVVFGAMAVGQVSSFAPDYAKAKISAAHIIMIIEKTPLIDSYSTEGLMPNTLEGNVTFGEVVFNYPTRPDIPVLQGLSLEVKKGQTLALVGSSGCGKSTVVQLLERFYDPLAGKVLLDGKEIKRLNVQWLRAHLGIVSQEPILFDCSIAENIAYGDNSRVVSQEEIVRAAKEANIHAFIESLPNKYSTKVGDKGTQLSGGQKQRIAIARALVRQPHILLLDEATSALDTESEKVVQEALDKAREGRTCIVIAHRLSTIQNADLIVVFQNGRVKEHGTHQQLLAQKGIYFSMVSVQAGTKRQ
Chain of CB1R (P21554 whole entry): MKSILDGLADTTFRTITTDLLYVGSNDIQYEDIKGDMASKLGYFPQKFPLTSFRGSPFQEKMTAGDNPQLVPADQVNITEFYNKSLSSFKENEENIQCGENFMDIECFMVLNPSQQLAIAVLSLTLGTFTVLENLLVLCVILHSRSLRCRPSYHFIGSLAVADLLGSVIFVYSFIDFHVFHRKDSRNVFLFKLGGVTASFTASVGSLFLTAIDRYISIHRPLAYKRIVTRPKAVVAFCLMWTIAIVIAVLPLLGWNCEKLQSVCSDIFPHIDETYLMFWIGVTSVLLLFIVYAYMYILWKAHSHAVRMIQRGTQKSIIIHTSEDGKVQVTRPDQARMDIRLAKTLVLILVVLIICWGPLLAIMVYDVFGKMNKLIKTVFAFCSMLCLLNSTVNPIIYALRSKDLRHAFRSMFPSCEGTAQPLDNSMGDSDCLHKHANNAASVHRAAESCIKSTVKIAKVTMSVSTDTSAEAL
Chain of CB2R (P34972 whole entry): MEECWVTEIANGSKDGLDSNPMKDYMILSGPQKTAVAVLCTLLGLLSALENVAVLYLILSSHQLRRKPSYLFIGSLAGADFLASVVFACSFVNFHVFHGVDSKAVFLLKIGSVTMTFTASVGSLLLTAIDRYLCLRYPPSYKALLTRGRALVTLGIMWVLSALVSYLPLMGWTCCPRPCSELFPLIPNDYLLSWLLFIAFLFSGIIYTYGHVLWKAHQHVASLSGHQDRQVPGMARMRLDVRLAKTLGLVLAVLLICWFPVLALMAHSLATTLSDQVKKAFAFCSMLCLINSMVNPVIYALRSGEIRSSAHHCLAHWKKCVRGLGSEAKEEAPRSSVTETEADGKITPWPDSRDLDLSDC

The inhibition is the share of the control response that was lost under treatment. A word on the viability: it is the share of living cells, or the viability signal relative to a control. What is called EC50 is the concentration needed to bring the measured effect to its halfway point. Usually Emax stands for the greatest response seen or fitted, relative to the assay's reference. Consider `NC(=O)[C@@H]1CCCCN1C(=O)c1cn(CC2CCCCC2)c2ccccc12` [18e], for which the “P-gp interaction % at 100 μM” value at P-glycoprotein (P-gp) is given as 30%. Moreover, on P-glycoprotein (P-gp) (probe Calcein-AM (2.5 μM), at 1 μM as printed in text), the inhibition at 30 min, 1 μM is 30%. The viability at 0.1 µM in series [1] was around 100%. Moreover, in the series with mouse primary neurons, the primary cell survival entry was “did not affect primary cell survival”. The “CB1R % at 1 μM” value at CB1R came out at 19%. On CB2R, a half-maximal effect (EC50) was put at 0.09 ± 0.002 nM and the Emax was 74%.

As a reminder, the Ki is a measure of affinity in units of concentration, obtained from inhibition or displacement. With `CCCCCn1nc(C(=O)N2CCCC[C@H]2C(=O)OC)c2ccccc21` [16i], in series [1], the viability at 0.1 µM is around 100%. The primary cell survival result with mouse primary neurons is reported as “did not affect primary cell survival”. Further, affinity at CB1R (displacement of [3H]CP 55,940, membranes of CHO-CB1 C3 cells, n = 3) was put at a Ki of 685 ± 21 nM. In addition, on CB2R, the EC50 was 0.38 ± 0.09 nM and the Emax is 88%.

Take `NC(=O)[C@H]1CCCCN1C(=O)c1nn(Cc2ccc(F)cc2)c2ccccc12` [18p]: the EC50 on P-glycoprotein (P-gp) is 56900 nM. Further, the viability at 0.1 µM in series [1] is around 100%. For the same compound, the primary cell survival result in the series on mouse primary neurons is listed as “did not affect primary cell survival”. In addition, the “CB1R % at 1 μM” value at CB1R came out at 2%. For the same compound, on CB2R, the EC50 was 0.4 ± 0.02 nM and the Emax was 79%.

As for `CCCCCn1nc(C(=O)N2CCCC[C@@H]2C(=O)OC)c2ccccc21` [16j], the viability at 0.1 µM in series [1] is around 100%. In addition, the primary cell survival result in the series on mouse primary neurons was “did not affect primary cell survival”. On CB1R, the “CB1R % at 1 μM” value stood at 3%. Besides, on CB2R, the EC50 amounted to 0.09 ± 0.003 nM and the Emax is 89%.

As to `NC(=O)[C@@H]1CCCCN1C(=O)c1nn(Cc2ccc(F)cc2)c2ccccc12` [18o], the “P-gp interaction % at 100 μM” value on P-glycoprotein (P-gp) is 49%. The viability at 0.1 µM in series [1] is around 100%. For the same compound, the primary cell survival entry in the series on mouse primary neurons was “did not affect primary cell survival”. Besides, at CB2R, it took 0.03 ± 0.003 nM to reach a half-maximal effect (EC50) and the Emax was 68%.

For `NC(=O)[C@H]1CCCCN1C(=O)c1cn(CC2CCCCC2)c2ccccc12` [18f], the EC50 on P-glycoprotein (P-gp) is 61800 nM. The viability at 0.1 µM in series [1] is around 100%. The primary cell survival result with mouse primary neurons is “did not affect primary cell survival”. The “CB1R % at 1 μM” value on CB1R was 11%. Further, at CB2R, the response was half-maximal at 0.07 ± 0.007 nM (EC50) and the Emax was 94%.
